Results as given in patent US20260337225A1, “SMALL PEPTIDE AND USE THEREOF IN MUCOSAL REPAIR” (FORREST BIO-PHARM (SHENZHEN) CO., LTD., priority 2022, published 2026).
Values joined by “and” are separate entries in the source; they are usually repeats but may differ in a detail not shown here. Equal values may be shown once. No end group written: not given here.

Tests used:
[1] = tested on: mouse model of acute gastric ulcer; assay: Mouse model of acute gastric ulcer (anhydrous ethanol); format: in vivo
Description: In this embodiment, the function of the small peptides obtained in Embodiment 2 was validated using a mouse model of acute gastric ulcer.
Control group (model group): A mouse mode of acute gastric ulcer was constructed using anhydrous ethanol (0.1 mL/10 g) (referring to the literature of Study on Action of kangfuxin Solution on Experimental Gastric ulcer [J]. Chinese Traditional Patent Medicine, 2001, 23(2): 122-124. DOI: 10.3969/j.issn.1001-1528.). After modeling, the mice were administered with an equal volume of saline.
Blank group: The mice were administered with an equal volume of saline.
Drug treatment groups: A mouse mode of acute gastric ulcer was constructed by treating the mouse with anhydrous ethanol (0.1 mL/10 g). At 2 h, 12 h, and 22 h after modeling, the mice were administered with the rice polypeptide mixture (50 mg/kg) as the mixture group, small peptide P1 (0.5 mg/kg) as the P1 group, and small peptide P2 (0.5 mg/kg) as the P2 group, respectively.
Each group consisted of 8 mice. After 24 h of modeling, the mice were sacrificed, to extract the gastric tissue, and observe changes in bleeding points and ulcer area via gastric tissue dissection.

[2] = tested on: rat model of chronic gastric ulcer; assay: Rat model of chronic gastric ulcer (anhydrous ethanol followed by aspirin); format: in vivo
Description: The function of the small peptides obtained in Embodiment 2 was validated in the present embodiment by using a rat model of chronic gastric ulcer.
Control group (model group): A rat model of chronic gastric ulcer model was constructed by intragastric administration of anhydrous ethanol (1 mL/200 g), followed by intragastric administration of 200 mg/kg aspirin 2 h later. The rats were administered with aspirin once daily for 4 days. At day 5, the rats were administered with an equal volume of saline.
Blank group: The rats were administered with an equal volume of saline.
Drug treatment groups: A rat model of chronic gastric ulcer was constructed as above-mentioned. At day 5, the rats were respectively administered with the rice polypeptide mixture (50 mg/kg), small peptide P1 (0.5 mg/kg), or small peptide P2 (0.5 mg/kg) twice daily for 3 days. On day 4, the rats were sacrificed and their gastric necropsy was performed.
Positive control group (omeprazole 2.6 mg/kg): A rat model of chronic gastric ulcer was constructed as above. At day 5, the rats were administered with omeprazole (2.6 mg/kg) twice daily for 3 days. On day 4, The rats were sacrificed and their gastric necropsy was performed.
Each group consisted of 10 rats. After 24 h of modeling, the rats were sacrificed to extract the gastric tissue, for measuring gastric pH, and observing changes in ulcer area via gastric tissue dissection. Liver and kidney tissues were collected for pathological section observation to assess drug safety.

[3] = tested on: normal human hepatic parenchymal L-02 cells; assay: Hepatotoxicity: cytotoxicity in L-02 cells by CCK-8 assay; format: cell-based; details: 10-200 μg/mL, 24 h, in words
Description: Referring to the method from a literature (Determination of emodin in L-02 cells and cell culture media with liquid chromatography-mass spectrometry: Application to a cellular toxicokinetic study. J Pharm Biomed Anal. 2012; 71:71-78), normal human hepatic parenchymal L-02 cells (obtained from Shanghai Cell Bank) were seeded into 96-well plates and treated with small peptides P1 and P2 at concentrations of 0 μg/mL, 10 μg/mL, 20 μg/mL, 50 μg/mL, 100 μg/mL, and 200 μg/mL. After 24-hour stimulation, the cytotoxicity was assessed by Cell Counting Kit-8 (CCK-8) assay.

[4] = tested on: normal human kidney-2 cells (HK-02, HK-2); assay: Nephrotoxicity: cytotoxicity in HK-2 cells by CCK-8 assay; format: cell-based; details: 10-200 μg/mL, 24 h, in words
Description: Referring to the method from a literature (Sinomenine improve diabetic nephropathy by inhibiting fibrosis and regulating the JAK2/STAT3/SOCS1 pathway in streptozotocin-induced diabetic rats. Life Sci. 2021; 265:118855), normal human kidney-2 cells (HK-02, HK-2) (Shanghai Cell Bank) were seeded into 96-well plates and administered with small peptides P1 and P2 at concentrations of 0 μg/mL, 10 μg/mL, 20 μg/mL, 50 μg/mL, 100 μg/mL, and 200 μg/mL. After 24-hour stimulation, the cytotoxicity was assessed by Cell Counting Kit-8 (CCK-8) assay.

[5] = Animal safety observation: rat body weight; format: in vivo; details: for Rat body weight: 1000 mg/kg daily, intragastric gavage, individual rats, Rat 1-7 = c1-c7, 1000 mg/kg
Description: (§1) The rats were administered with the small peptides via intragastric gavage at doses of 500 mg/kg and 1000 mg/kg daily for 14 days. Changes in body weight were recorded. On day 14, the rats were sacrificed to measure alaninetransaminase (ALT) activity and blood urea nitrogen (BUN) levels in rat serum for assessing whether there was hepatotoxicity and nephrotoxicity in rats.

Rat liver = assay: Animal safety observation: rat liver injury (serum alaninetransaminase activity); format: in vivo; details: 14 days; for Alaninetransaminase Activity, Average / Alaninetransaminase Activity: intragastric gavage, rat serum; for Alaninetransaminase Activity, Average: average of 6 rats, saline average P1 35.83333, P2 30.83333; for Alaninetransaminase Activity: individual rats (Rat 1-6)
Description: as §1

Rat kidney = assay: Animal safety observation: rat kidney injury (serum blood urea nitrogen levels); format: in vivo; details: 14 days; for Blood Urea Nitrogen Levels: intragastric gavage, rat serum, individual rats (Rat 1-6)
Description: as §1

mucosal repair = assay: Screening of active monomers for mucosal repair effects; details: repeated experiments and screening; in words
Description: The inventors observed the active monomers in the polypeptide mixture of Polimi-1 rice variety by mass spectrometry analysis of the polypeptides from various ordinary rice varieties and Polimi-1 rice variety. The small peptides identical to ordinary rice varieties and with high levels in ordinary rice varieties were excluded by a method of exclusion. Finally, the small peptides with higher levels in Polimi-1 rice variety and lower levels in other ordinary rice varieties were selected for further study, as well as those with higher levels in Polimi-1 rice variety and absent in other ordinary rice varieties. Since peptides with molecular weights below 1500 Daltons were extracted from the mixed polypeptide mixture previously obtained, other peptides above this threshold were excluded.

[6] = 500 and 1000 mg/kg daily, rats, in words

GPSGPELRG [Small peptide P2, GPSGPELRG]
Ulcer index ([1]; 0.5 mg/kg at 2 h, 12 h and 22 h after modeling, 8 mice, ratio of ulcer area to gastric mucosal tissue area, Control group 58.3 ± 10.1): 7.1 ± 5.5%
Ulcer inhibition rate ([1]; 0.5 mg/kg at 2 h, 12 h and 22 h after modeling, percentage reduction in ulcer area compared to the Control group): 87.8%
result compared to the mixture group ([1]; 0.5 mg/kg versus mixture 50 mg/kg, in words): better results than the mixture in larger dose
anti-ulcer effects ([1]; 0.5 mg/kg, in words): excellent anti-ulcer effects
Ulcer index ([2]; 0.5 mg/kg twice daily for 3 days, 10 rats, ratio of ulcer area to gastric mucosal tissue area, Control group 40.5 ± 5.3): 5.5 ± 3.7%
Ulcer inhibition rate ([2]; 0.5 mg/kg twice daily for 3 days, percentage reduction in ulcer area compared to the Control group): 86.4%
anti-ulcer effects ([2]; P1, P2 0.5 mg/kg, mixture 50 mg/kg, in words): exhibit anti-ulcer effects
P versus Positive control group ([2]; anti-ulcer effects compared to omeprazole 2.6 mg/kg, P1, P2 0.5 mg/kg, mixture 50 mg/kg): > 0.05
viability of normal human liver cells L-02 [3]: no effect
hepatotoxicity ([3]; L-02 cells): no hepatotoxicity
viability of normal human kidney cells HK-02 (HK-2) [4]: no effect
nephrotoxicity ([4]; HK-2 cells): no nephrotoxicity
Rat body weight ([5]; Day 1): 208 g and 215 g and 219 g and 218 g and 217 g (2×) and 214 g
Rat body weight ([5]; Day 2): 210 g and 216 g (2×) and 220 g and 221 g and 223 g and 218 g
Rat body weight ([5]; Day 3): 211 g and 220 g and 221 g and 222 g and 225 g and 210 g and 219 g
Rat body weight ([5]; Day 4): 213 g and 224 g
Rat body weight ([5]; Day 5): 214 g and 225 g (2×) and 229 g (2×) and 221 g and 226 g
Rat body weight ([5]; Day 6): 214 g and 226 g and 225 g and 231 g and 230 g and 224 g and 229 g
Rat body weight ([5]; Day 7): 215 g and 226 g and 230 g (2×) and 237 g and 232 g and 225 g
Rat body weight ([5]; Day 8): 216 g and 229 g (2×) and 233 g and 236 g and 234 g and 232 g
Rat body weight ([5]; Day 9): 221 g and 230 g and 235 g (2×) and 239 g and 234 g and 231 g
Rat body weight ([5]; Day 10): 224 g and 231 g and 238 g and 240 g and 239 g and 235 g and 237 g
Rat body weight ([5]; Day 11): 225 g and 234 g and 239 g and 242 g (2×) and 238 g and 240 g
Rat body weight ([5]; Day 12): 230 g and 235 g and 239 g and 244 g (2×) and 245 g and 240 g
Rat body weight ([5]; Day 13): 231 g and 238 g and 240 g and 245 g (2×) and 249 g and 241 g
Rat body weight ([5]; Day 14): 235 g and 239 g and 241 g and 248 g and 250 g and 244 g (2×)
Rat body weight ([5]; Day 15): 238 g and 241 g and 242 g and 250 g and 252 g and 245 g (2×)
effects on rat body weight ([5]; daily intragastric gavage for 14 days, in words): minimal effects
Alaninetransaminase Activity, Average (Rat liver; 500 mg/kg daily): 29.33 IU/L
Alaninetransaminase Activity (Rat liver; 500 mg/kg daily): 34 IU/L (2×) and 42 IU/L and 17 IU/L and 21 IU/L and 28 IU/L
Alaninetransaminase Activity, Average (Rat liver; 1000 mg/kg daily): 36.67 IU/L
Alaninetransaminase Activity (Rat liver; 1000 mg/kg daily): 29 IU/L and 43 IU/L and 45 IU/L and 33 IU/L and 32 IU/L and 38 IU/L
hepatotoxicity (Rat liver; [6]): without hepatotoxicity
Blood Urea Nitrogen Levels (Rat kidney; 500 mg/kg daily): 19 mg/dL and 37 mg/dL and 32 mg/dL and 34 mg/dL and 42 mg/dL and 33 mg/dL
Blood Urea Nitrogen Levels (Rat kidney; 1000 mg/kg daily): 23 mg/dL and 29 mg/dL and 35 mg/dL and 39 mg/dL and 43 mg/dL and 44 mg/dL
nephrotoxicity (Rat kidney; [6]): without hepatotoxicity and nephrotoxicity
mucosal repair effects (mucosal repair): found to have mucosal repair effects
